From paper PMC9888480, “Carboranyl-1,8-naphthalimide intercalators induce lysosomal membrane permeabilization and ferroptosis in cancer cell lines” (Journal of Enzyme Inhibition and Medicinal Chemistry, 2023)
Read-outs that look alike come from different tables or passages of the source.

Experiments:
human topoisomerase IIα = biological target: human topoisomerase IIα; set-up: method as in PMID 35562989; details: earlier study of 4-carboranyl-1,8-naphthalimides; read-out: anti-Topo II activity IC50; cited from earlier work
ct-DNA [1] = assay: Melting temperature (Tm) measurements of ct-DNA; type: binding, calf; details: r = [compound]/[ct-DNA] = 0.3, cacodylate buffer pH 7.0; Tm of free ct-DNA 74 °C; error ±0.5 °C
Description: The measurements were carried out by adding aliquots of DMSO stock solution of the tested compounds to the buffer solution (pH 7.0, 20 mM, cacodylate buffer, DMSO content of the final solution = 0.33–0.39%). Tm curves were collected at r = 0.3 (r = [compound]/[ct-DNA]) to assure the dominant binding mode. Thermal melting curves were plotted considering the absorption change at 260 nm as a function of temperature using a GBC Cintra10 UV–VIS spectrometer (Dandenong, Australia) equipped with a GBC Thermocell Peltier Power Supply (Dandenong, Australia) with the use of a 1-cm-path-length cell. The absorbance of the samples was monitored at 260 nm from 35 to 95 °C with a heating rate of 1 °C/min. Tm values are the midpoints or the transition curves determined from the maximum of the first derivative. ΔTm values were calculated by subtracting the Tm of the free nucleic acid from the Tm of the sample. All ΔTm values reported in the study were measured in triplicate. The error in ΔTm was ±0.5 °C.

ct-DNA [2] = assay: UV–vis spectra titration with ct-DNA (binding constant Kb); set-up: species or system calf; details: for Kb compared to that of mitonafide: mitonafide Kb 2.54 × 10^5
Description: The measurements were performed by adding aliquots of DMSO stock solution of the tested compounds to the buffer solution (pH 7.4, 20 mM, 50 mM NaCl, Tris–HCl buffer, DMSO content of the final solutions = 0.54–0.65%) to the final concentration 10 µM. The tested compounds were incubated for 5 min, with increasing concentrations ranging from 0 to 15 µM of ct-DNA at 37 °C. Then, the UV–vis absorption spectra between 300 and 500 nm were recorded using a GBC Cintra10 UV–VIS spectrometer equipped with a GBC Thermocell Peltier Power Supply with the use of a 1-cm-path-length cell. The binding constant was calculated according to the following equation[70]: A0/A−A0= εG/εH−G−εG+ εG/εH−G−εG × 1/Kb[DNA] where Kb is the binding constant; A0 and a are absorbances of the free tested compound and the apparent one; εG and εH–G are their coefficient, respectively; [DNA] is the concentration of DNA in base pairs. The slope to intercept ratio of the plot between A0/A − A0 and 1/[DNA] yielded the binding constant.

ct-DNA [3] = assay: Circular dichroism (CD) measurements of ct-DNA; type: binding, calf; details: increasing concentration of conjugate, r = 0.1–0.5, cacodylate buffer pH 7.0
Description: The measurements were performed by adding aliquots of DMSO stock solution of the tested compounds to the buffer solution (pH 7.0, 20 mM, cacodylate buffer, DMSO content of the final solutions = 0.22–1.30%). Changes in the CD spectrum of ct-DNA upon the addition of compound were measured at different molar ratios r = [compound]/[ct-DNA]. CD spectra were recorded on a JASCO J-815 CD spectrometer with a JASCO PFD-425S Peltier thermostated cell holder (JASCO, Tokyo, Japan) by using a square quartz cuvette of path length 0.5 cm (0.5 ml) in the 230–400 nm region. The CD profiles reported were an average of three successive scans with a scan time of 200 nm per minute and an appropriately corrected baseline. Temperature was maintained at 20 °C during the experiment.

HepG2 [4] = assay: In vitro cytotoxic activity, MTT assay; type: cell-based, human; details: concentration required to inhibit cell growth by 50%
From the text: The in vitro cytotoxic activity of the obtained carborane-1,8-naphthalimide conjugates was investigated by examining their cytotoxic effects using the MTT (3–(4,5-dimethylthiazol-2-yl)-2,5-diphenyltetrazolium bromide) dye assay[38]^,[39] against the human cancer cell line HepG2 established from hepatocellular carcinoma (for compounds 12–19 and 30–37) and against human lung fibroblasts (MRC-5) (for compounds 34–37). The IC50 values—the drug concentration (µM) required to inhibit cell growth by 50%—determined for the synthesised compounds are summarised in Table 2.
The cytotoxic properties of the synthesised compounds were evaluated using the human hepatocellular carcinoma cell line (HepG2) and human lung fibroblasts (MRC-5). The HepG2 and MRC-5 cell lines were purchased from American Type Culture Collection (ATCC, Manassas, VA, USA). The HepG2 cells were propagated in Eagle’s minimal essential medium (EMEM, ATCC, Manassas, VA, USA), supplemented with 10% inactivated foetal bovine serum (FBS, Life Technologies, Warsaw, Poland) and 100 units/ml penicillin G with […] streptomycin (Life Technologies, Warsaw, Poland). The cells were incubated at 37 °C in a humidified atmosphere containing 5% CO2. Upon reaching 80–90% confluency, the cells were harvested with 0.25% trypsin in 1 mM EDTA (Life Technologies, Warsaw, Poland) and transferred to 96-well microplates at 2 × 10^4 cells/well. After overnight incubation of cells at 37 °C in a humidified atmosphere containing 5% CO2, the culture medium was removed and replaced with a freshly prepared solution of compounds in the culture medium or medium itself as the control group. The stock solutions of each compound were prepared in DMSO at a concentration of 100 mM and were diluted with the growth medium supplemented with 10% FBS to ensure drug dissolution to obtain concentrations ranging from 0.1 to 1000 µM. Cytotoxicity was evaluated using the MTT assay. After incubation with the compounds, the cells were treated with MTT dye solution (5 mg/ml) for 2 h and lysed with a solvent solution containing DMF (45 ml), sodium dodecylsulfate (13.5 g), and distilled water (55 ml). After overnight incubation at 37 °C, optical density at 550 nm, with a reference wavelength of 670 nm, was measured in an ELISA reader (VarioskanLux, Thermo Scientific, Waltham, MA, USA). All determinations were carried out in triplicate. Results were calculated as the percentage of control group viability. The IC50 values of the compounds were calculated in an Excel add-in ED50V10.

ct-DNA [5] = test system: ct-DNA; set-up: method as in PMID 33803403; details: unmodified mitonafide and pinafide; cited from earlier work
HepG2 [6] = test system: HepG2; set-up: method as in PMID 31776032; details: footnote of Table 2, reference compounds; cited from earlier work
HepG2 cells = test system: HepG2 cells; set-up: method as in PMID 31776032; details: earlier N-imide derivatives; cited from earlier work

Row | Molecule | ΔTm ct-DNA (ct-DNA [1]) [°C] | Kb compared to that of mitonafide (ct-DNA [2]) | change in the CD spectra of ct-DNA (ct-DNA [3]) | IC50 (HepG2 [4]) [µM] | further results
1 | N-[2-(dimethylamino)ethyl]-4-{1-[3-(1,2-dicarba-closo-dodecaborane-1-yl)propyl]-1H-1,2,3-triazol-4-yl}-1,8-naphthalimide |  |  |  |  | IC50 (human topoisomerase IIα): 0.58 µM
2 | 4-[(2-[3–(1,2-Dicarba-closo-dodecaborane-1-yl)propanamido]ethyl)amino]-N-[2-(dimethylamino)ethyl]-3-nitro-1,8-naphthalimide [Compound 12] | 3.33 | similar | did not cause any appreciable change | 21.7 ± 0.95 | 
3 | CN(C)CCN1C(=O)c2cccc3cc([N+](=O)[O-])cc(c23)C1=O [mitonafide] |  |  |  |  | ΔTm (ct-DNA [5]): 5.17 °C; IC50 (HepG2 [6]): < 1 µM; IC50 (human topoisomerase IIα): 5.13 µM
4 | 4-[(6-[3–(1,2-Dicarba-closo-dodecaborane-1-yl)propanamido]hexyl)amino]-3-nitro-N-[2-(N-pyrrolidinyl)ethyl]-1,8-naphthalimide [Compound 18] |  | approximately 1.5 fold |  | 4.79 ± 0.8 | 
5 | 4-[(2-[(1,2-Dicarba-closo-dodecaborane-1-yl)ethylamino]ethyl)amino]-3-nitro-N-[2-(N-pyrrolidinyl)ethyl]-1,8-naphthalimide [Compound 32] | 0.33 | approximately 1.5 fold | disturbed | 8.12 ± 0.88 | 
6 | 4-[(2-[(1,7-Dicarba-closo-dodecaborane-1-yl)ethylamino]ethyl)amino]-3-nitro-N-[2-(N-pyrrolidinyl)ethyl]-1,8-naphthalimide [Compound 33] | 0.33 |  | did not cause any appreciable change | 20.6 ± 3.83 | changes in the absorbance on addition of ct-DNA (ct-DNA [2]; UV–vis, 1.25–15 µM ct-DNA, 10 µM compound): changes in the absorbance were not observed
7 | N-{[2–(3,3′-commo-bis(1,2-dicarba-3-cobalta(III)-closo-dodecaborate-1-yl)ethyl]-1′-aminoethyl)}-1,8-naphthalimide] |  |  |  |  | intracellular ROS production (fluorescence intensity) (HepG2 cells): approximately twofold increase
8 | 4-[(2-[(1,2-Dicarba-closo-dodecaborane-1-yl)ethylamino]ethyl)amino]-N-[2-(dimethylamino)ethyl]-3-nitro-1,8-naphthalimide [Compound 30] | 3.33 |  | disturbed | 4.51 ± 0.66 | 
9 | 4-[(6-[3–(1,7-Dicarba-closo-dodecaborane-1-yl)propanamido]hexyl)amino]-3-nitro-N-[2-(N-pyrrolidinyl)ethyl]-1,8-naphthalimide [Compound 19] |  |  |  | 5.86 ± 0.56 | 
10 | N-[2-(N-pyrrolidinyl)ethyl]-4-[(2–(3–(1,2-dicarba-closo-dodecaborane-1-yl)propanamido)ethyl)amino]-1,8-naphthalimide |  |  |  |  | IC50 (human topoisomerase IIα): 2.81 µM
11 | 4-[(2-[3–(1,2-Dicarba-closo-dodecaborane-1-yl)propanamido]ethyl)amino]-3-nitro-N-[2-(N-pyrrolidinyl)ethyl]-1,8-naphthalimide [Compound 14] | 3.33 | similar | disturbed | 8.97 ± 1.13 | 
12 | N-[2–(3,3′-commo-bis(1,2-dicarba-3-cobalta(III)-closo-dodecaborate-1-yl)ethyl)]-1,8-naphthalimide |  |  |  |  | intracellular ROS production (fluorescence intensity) (HepG2 cells): approximately twofold increase
13 | N-[3–(1,2-dicarba-closo-dodecaborane-1-yl)propyl]-1,8-naphthalimide |  |  |  |  | intracellular ROS production (fluorescence intensity) (HepG2 cells): approximately twofold increase
14 | 4-[(2-[(1,7-Dicarba-closo-dodecaborane-1-yl)ethylamino]ethyl)amino]-N-[2-(dimethylamino)ethyl]-3-nitro-1,8-naphthalimide [Compound 31] | 1.67 | similar | did not cause any appreciable change | 11.6 ± 0.62 | bathochromic effect (ct-DNA [2]; UV–vis, addition of 1.25–15 µM ct-DNA to 10 µM compound): 6 nm
15 | 4-[(2-[3–(1,7-Dicarba-closo-dodecaborane-1-yl)propanamido]ethyl)amino]-N-[2-(dimethylamino)ethyl]-3-nitro-1,8-naphthalimide [Compound 13] | 3.67 |  | did not cause any appreciable change | 9.2 ± 0.68 | 
16 | 4-[(6-[3–(1,2-Dicarba-closo-dodecaborane-1-yl)propanamido]hexyl)amino]-N-[2-(dimethylamino)ethyl]-3-nitro-1,8-naphthalimide [Compound 16] |  | approximately 1.5 fold |  | 5.12 ± 0.87 | 
17 | O=C1c2cccc3cc([N+](=O)[O-])cc(c23)C(=O)N1CCN1CCCC1 [pinafide] |  |  |  |  | ΔTm (ct-DNA [5]): 6.50 °C; IC50 (HepG2 [6]): 1.23 µM
18 | 4-[(2-[3–(1,7-Dicarba-closo-dodecaborane-1-yl)propanamido]ethyl)amino]-3-nitro-N-[2-(N-pyrrolidinyl)ethyl]-1,8-naphthalimide [Compound 15] | 5.00 | similar | disturbed | 9.23 ± 0.35 | 
19 | 4-[(6-[3–(1,7-Dicarba-closo-dodecaborane-1-yl)propanamido]hexyl)amino]-N-[2-(dimethylamino)ethyl]-3-nitro-1,8-naphthalimide [Compound 17] |  | similar |  | 8.03 ± 1.25 | 
